From article PMC5640650, “NatD promotes lung cancer progression by preventing histone H4 serine phosphorylation to activate Slug expression” (Nature Communications, 2017)

Experiments:
H1299 cells = experiment: TGF-β1-induced EMT experiment (morphology), H1299 cells; type: cell-based, human; details: TGF-β1-treated NatD knockdown H1299 cells
Source text: Fig. 4 Silencing NatD suppresses cancer cell EMT by downregulating Slug. a Representative phase contrast images of Scr and NatD-KD H1299 cells treated with TGF-β1. Data are representative of three independent experiments. Scale bar, 100 μm. b Quantitative real-time PCR analysis of mRNA levels of indicated key EMT-related genes in Scr and NatD-KD H1299 cells normalized to GAPDH in the absence or presence of TGF-β1. Results are shown as mean ± s.d. of three independent experiments. Two-tailed Student’s t-test was used. **P < 0.01 or *P < 0.05 compared with the indicated control. c Western blot analysis of indicated protein levels in Scr and NatD-KD H1299 cells in the absence or presence of TGF-β1. GAPDH served as a loading control. Data are representative of three independent experiments. d Immunofluorescence analysis of Scr and NatD-KD H1299 cells in the absence or presence of TGF-β1 stained for E-cadherin and N-cadherin. […] (bottom panels) Cells were counted in at least four random microscope fields (×100 magnification) for the corresponding assays; migration and invasion are expressed as a percentage of control. […] Two-tailed Student’s t-test was used. **P < 0.01 compared with the indicated control. g Quantitative real-time PCR analysis of the mRNA levels of NatD and indicated key EMT-related genes (normalized to GAPDH) in Scr cells, NatD-KD cells, and NatD-KD + Slug cells. […]

A549 cells = experiment: Expression of EMT genes, A549 cells; type: cell-based, human; details: vs Scr
Method: Cellular proteins were extracted by RIPA lysis buffer at high salt concentration (420 mM NaCl), and western blot analysis was performed in accordance with standard protocols. Scans of enhanced chemiluminescence (ECL) films showing uncropped blots are presented in Supplementary Fig. 10. […]
Total RNA from tissue samples and cultured cells was extracted using TRIzol reagent (Invitrogen). cDNAs were synthesized with a HiScript 1st Strand cDNA Synthesis Kit (Vazyme Biotech, China). Quantitative RT-PCR was performed using a FastStart Universal SYBR Green Master (Roche) according to the manufacturer’s instructions in a Rotor-Gene 6000 (Corbett Research) in a final volume of 20 μl. […]
Supplementary Figure 4. […] (a) Quantitative real-time PCR analysis of mRNA levels of NatD, CCND1, p21, p27, p57, p16, p18, p19, CHEK2, E2F1, CCND2, KRAS, PTEN, c-Myc, and PCNA in scrambled (Scr) and NatD knockdown (NatD-KD) H1299 cells normalized to GAPDH. […] (b) Quantitative real-time PCR analysis of mRNA levels of NatD and key EMT-related genes in Scr and NatD-KD A549 cells normalized to […]
GAPDH served as a loading control. […] (bottom) Cell migration and invasion expressed as a percentage of control. […]

For “NatD-KD2: Human NatD shRNA KD2: 5′-GGTTGAATGTCTCCATTGA-3′, lentiviral (shRNA lentiviral)”, the “morphology on TGF-β1 treatment, NatD knockdown cells” value (H1299 cells) was “mostly retained their rounded epithelial morphology”, the “expression of E-cadherin” value (A549 cells) was “increased the expression” and the “expression of Slug, N-cadherin, and Vimentin” value (A549 cells) was “decreased the expression”.
